Reference: patent publication US20210353621A1 (priority 2020, published 2021)
Like-named read-outs stand apart in the source and are kept apart here.

Key:
[1] = tested on: enzalutamide resistant VCaP xenograft; assay: Enzalutamide-resistant VCaP xenograft model; assay type: in vivo
[2] = Phase I clinical trial pharmacokinetics; settings: male, human, in vivo, po, once daily
From the text: (§1) A traditional 3+3 dose escalation design was implemented. […] Dose increases were dependent upon toxicities.

[3] = Phase I dose escalation safety in mCRPC patients
From the text: as §1

[4] = in vivo; settings: dog, po
[5] = 28-day GLP toxicology study in rats
[6] = target: T1, BCRP (Homo sapiens, UniProt Q9UNQ0); assay: In vitro transporter inhibition, BCRP
T1 sequence (Q9UNQ0 1-655): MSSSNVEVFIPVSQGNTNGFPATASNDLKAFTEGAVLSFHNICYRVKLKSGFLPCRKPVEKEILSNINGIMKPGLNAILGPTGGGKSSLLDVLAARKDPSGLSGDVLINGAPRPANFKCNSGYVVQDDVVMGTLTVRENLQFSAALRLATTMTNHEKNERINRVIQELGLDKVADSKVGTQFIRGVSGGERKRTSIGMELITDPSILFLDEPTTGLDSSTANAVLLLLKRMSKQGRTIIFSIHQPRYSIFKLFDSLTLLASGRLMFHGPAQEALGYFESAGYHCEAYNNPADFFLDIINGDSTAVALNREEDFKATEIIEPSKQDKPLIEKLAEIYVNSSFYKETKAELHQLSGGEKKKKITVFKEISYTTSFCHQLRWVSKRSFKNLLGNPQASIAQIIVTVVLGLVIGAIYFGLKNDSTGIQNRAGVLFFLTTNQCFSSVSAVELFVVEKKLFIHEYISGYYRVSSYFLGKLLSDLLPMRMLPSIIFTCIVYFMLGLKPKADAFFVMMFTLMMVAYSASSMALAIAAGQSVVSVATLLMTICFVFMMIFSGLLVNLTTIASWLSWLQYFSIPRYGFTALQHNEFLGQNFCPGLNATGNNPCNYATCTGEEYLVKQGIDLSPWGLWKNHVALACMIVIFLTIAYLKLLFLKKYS

[7] = target: OATP1B1 (Homo sapiens, UniProt Q9Y6L6); assay: In vitro transporter inhibition, OATP1B1
[8] = target: OATP1B3 (Homo sapiens, UniProt Q9NPD5); assay: In vitro transporter inhibition, OATP1B3
[9] = Preclinical pharmacokinetics, oral once daily (Table 1); settings: total drug concentrations
[10] = Exploratory non-GLP assay of rosuvastatin in retained patient plasma samples; assay type: in vivo, human; settings: 2 patients taking rosuvastatin concurrently with Compound (I-g)
From the text: An exploratory, non-GLP method was developed to analyze for rosuvastatin and its major metabolite N-desmethyl rosuvastatin in retained pharmacokinetic plasma samples from the 2 patients.

[11] = 280 mg QD patient with rosuvastatin 20 mg QD, level before decrease
[12] = same patient, within 14 days after Compound (I-g) and rosuvastatin were discontinued
[13] = 3 and 10 μM, preliminary study, solubility limitation

Sequence of OATP1B3 (Q9NPD5 whole entry): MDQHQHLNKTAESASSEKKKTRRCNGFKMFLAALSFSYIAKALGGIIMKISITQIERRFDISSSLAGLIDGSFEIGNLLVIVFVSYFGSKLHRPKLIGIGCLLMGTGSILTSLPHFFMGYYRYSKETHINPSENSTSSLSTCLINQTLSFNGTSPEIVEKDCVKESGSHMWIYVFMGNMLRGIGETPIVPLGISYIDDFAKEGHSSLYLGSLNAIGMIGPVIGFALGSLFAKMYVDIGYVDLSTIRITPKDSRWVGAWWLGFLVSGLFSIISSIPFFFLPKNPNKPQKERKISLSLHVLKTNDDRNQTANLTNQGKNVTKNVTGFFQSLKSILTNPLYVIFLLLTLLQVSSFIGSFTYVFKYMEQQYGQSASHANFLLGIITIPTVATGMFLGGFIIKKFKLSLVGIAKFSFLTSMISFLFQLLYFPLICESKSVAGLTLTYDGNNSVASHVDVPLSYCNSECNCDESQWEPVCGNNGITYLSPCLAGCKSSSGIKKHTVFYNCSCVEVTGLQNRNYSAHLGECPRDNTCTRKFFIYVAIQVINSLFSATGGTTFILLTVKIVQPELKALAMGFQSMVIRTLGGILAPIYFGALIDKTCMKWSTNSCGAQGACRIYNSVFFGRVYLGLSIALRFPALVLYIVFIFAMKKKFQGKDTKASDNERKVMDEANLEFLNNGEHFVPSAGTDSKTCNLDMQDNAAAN
Sequence of OATP1B1 (Q9Y6L6 whole entry): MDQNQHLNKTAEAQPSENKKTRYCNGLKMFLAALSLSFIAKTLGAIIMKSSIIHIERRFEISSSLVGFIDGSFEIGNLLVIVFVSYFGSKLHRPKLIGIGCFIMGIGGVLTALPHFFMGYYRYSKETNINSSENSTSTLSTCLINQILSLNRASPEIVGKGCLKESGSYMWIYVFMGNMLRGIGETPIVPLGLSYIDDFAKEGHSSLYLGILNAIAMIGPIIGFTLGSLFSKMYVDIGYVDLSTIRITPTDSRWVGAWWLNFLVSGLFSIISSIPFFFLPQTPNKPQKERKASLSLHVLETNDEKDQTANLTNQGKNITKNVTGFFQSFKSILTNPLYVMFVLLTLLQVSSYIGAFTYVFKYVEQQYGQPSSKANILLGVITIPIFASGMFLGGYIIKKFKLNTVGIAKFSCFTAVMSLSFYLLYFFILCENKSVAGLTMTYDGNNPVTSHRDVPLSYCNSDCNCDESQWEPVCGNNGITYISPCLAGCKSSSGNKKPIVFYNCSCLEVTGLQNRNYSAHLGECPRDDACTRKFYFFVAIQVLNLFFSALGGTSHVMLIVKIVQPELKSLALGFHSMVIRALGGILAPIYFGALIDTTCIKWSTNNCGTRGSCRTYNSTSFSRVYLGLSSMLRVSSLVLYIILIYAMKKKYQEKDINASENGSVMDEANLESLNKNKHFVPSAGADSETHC

In the case of `N#Cc1ccc(O[C@H]2CC[C@H](NC(=O)c3ccc(N4CCC(CN5CCN(c6cc7c(cc6F)C(=O)N(C6CCC(=O)NC6=O)C7=O)CC5)CC4)nn3)CC2)cc1Cl` (stereo partly shown) [Compound (I-g)], the tumor growth inhibition ([1]; 3 mg/kg oral once daily, compared to a control group) is reported as 70%, the “AR in enzalutamide-resistant VCaP tumors (Western blot)” value ([1]; 10 mg/kg and 3 mg/kg oral, once daily, FIG. 6) is reported as “reduction of AR” and the lowest efficacious dose ([1]; oral, once daily, enzalutamide-resistant VCaP model) is reported as 3 mg/kg. For the same compound, the AUC(0-t) ([2]; 35 mg, Mean Day 1 AUC0-24, 35 mg oral) was 160 ng·h/mL, the Cmax ([2]; 35 mg, Mean Day 1 Cmax, 35 mg oral) was 11.1 ng/mL and the AUC(0-t) ([2]; 35 mg, Mean Day 15 AUC0-24, 35 mg oral, imputed 24 hours values) was 1700 ng·h/mL. The Cmax ([2]; 35 mg, Mean Day 15 Cmax, 35 mg oral) was 83 ng/mL, the AUC(0-t) ([2]; 70 mg, Mean Day 1 AUC0-24, 70 mg oral) was 300 ng·h/mL and the Cmax ([2]; 70 mg, Mean Day 1 Cmax, 70 mg oral) was 19.6 ng/mL. The AUC(0-t) ([2]; 70 mg, Mean Day 15 AUC0-24, 70 mg oral, imputed 24 hours values) was 2540 ng·h/mL, the Cmax ([2]; 70 mg, Mean Day 15 Cmax, 70 mg oral) was 141 ng/mL and the AUC(0-t) ([2]; 140 mg, Mean Day 1 AUC0-24, 140 mg oral) was 865 ng·h/mL. For the same compound, the Cmax ([2]; 140 mg, Mean Day 1 Cmax, 140 mg oral) was 54 ng/mL, the AUC(0-t) ([2]; 140 mg, Mean Day 15 AUC0-24, 140 mg oral, imputed 24 hours values) was 5020 ng·h/mL and the Cmax ([2]; 140 mg, Mean Day 15 Cmax, 140 mg oral) was 353 ng/mL. The adverse events ([3]; 35 mg/day cohort) was “no adverse events at grades 2, 3 or 4 were observed”, the dose limiting toxicity ([3]; 35 mg/day cohort) was “no dose limiting toxicity was observed” and the “AST/ALT elevation on second re-challenge” value ([3]; 70 mg QD following discontinuation of rosuvastatin) was “no other AST/ALT elevation has been observed for 90 days”. The “AST/ALT elevation on re-challenge” value ([3]; 70 mg QD while continuing rosuvastatin) was “second instance of Grade 3 AST/ALT elevation”, the adverse events ([3]; 70 mg/day cohort) was “no adverse events at grades 2, 3 or 4 have been observed, with the exception of grade 3 anemia that was unrelated to the administration of compound (I-g)” and the dose limiting toxicity ([3]; 70 mg/day cohort) was “no dose limiting toxicity has been observed”. The adverse events ([3]; 140 mg/day cohort) was “no adverse events at grades 2, 3 or 4 have been observed”, the dose limiting toxicity ([3]; 140 mg/day cohort) was “no dose limiting toxicity has been observed” and the dose limiting toxicity ([3]; 280 mg QD cohort (3 patients), patient taking rosuvastatin 20 mg QD) was “one patient experienced dose limiting toxicity (DLT) of Grade 4 AST/ALT elevation followed by Grade 4 acute renal failure”. For the same compound, the ALT level [3, 11] was 4116 U/L, the AST level [3, 11] was 4901 U/L and the overall tolerability ([3]; 18 patients, 35 mg to 280 mg QD) was “well tolerated”. The “time to resolution of Grade 3 AST/ALT elevation to Grade 1” value ([3]; after dose interruption, 140 mg QD patient with rosuvastatin 40 mg QD) was ≤ 5 days, the ALT level [3, 12] was 83 U/L and the AST level [3, 12] was 280 U/L. For the same compound, the “histopathology correlated with AST/ALT elevations” value (dogs) was “No correlated histopathology changes were observed”, the gastrointestinal alterations (dogs, 3, 10 or 30 mg/kg oral once daily) was “observed at all dose levels (including vehicle alone)” and the “AST and ALT” value (dogs, 10 or 30 mg/kg/day, study days 14 and 29) was “reversible elevations of AST and ALT”. The renal impairment (dogs, 28-day GLP study) was “No evidence of renal impairment was observed”, the prostate weights (male dogs) was “decreased prostate weights” and the MTD at 28 days [4] was < 30 mg/kg. The “body weight and food consumption” value ([5]; 80 mg/kg female rat cohort) was “lost body weight and consumed less food”, the “reversibility of findings in male high-dose rats” value ([5]; male high-dose rats, 14-day recovery) was “fully reversible (liver hypertrophy, femur physis thickening)” and the prostate weights ([5]; male rats) was “decreased prostate weights”. The renal impairment ([5]; rats, 28-day GLP study) was “No evidence of renal impairment was observed”, the tolerability ([5]; rats, oral once daily, 28 days, males 20, 60, 120 mg/kg, females 20, 40, 120 mg/kg) was “well tolerated at all doses, with the exception of the 80 mg/kg female cohort” and the IC50 [6] was > 10 µM. For the same compound, the “inhibition of BCRP” value [6, 13] was “no inhibition”, the IC50 [7] was > 10 µM and the “inhibition of OATP1B1” value [7, 13] was “no inhibition”. The IC50 [8] was > 10 µM, the “inhibition of OATP1B3” value [8, 13] was “no inhibition” and the “Mean AUC0-24” value ([9]; 1 mg/kg oral) was 3628 ng·h/mL. The “Mean Cmax” value ([9]; 1 mg/kg oral) was 224 ng/mL, the “Mean AUC0-24” value ([9]; 3 mg/kg oral) was 8106 ng·h/mL and the “Mean Cmax” value ([9]; 3 mg/kg oral) was 507 ng/mL.
For `CC(C)c1nc(N(C)S(C)(=O)=O)nc(-c2ccc(F)cc2)c1/C=C/[C@@H](O)C[C@@H](O)CC(=O)O` [Rosuvastatin, rosuvastatin], the rosuvastatin plasma concentrations [10] was “increased concurrently with the increase in AST/ALT levels in both patients”.
